Numbers after ± are expanded uncertainties.
Assay: xn = mol fraction of the nth substance listed
Details: 101.3 kPa, Liquid; for viscosity: Capillary tube (Ostwald / Ubbelohde) method

CC(O)C(C)O (configuration not stated) [2,3-butanediol] + O
Details | mass density, 318.15 K [kg/m3] | mass density, 328.15 K [kg/m3] | mass density, 338.15 K [kg/m3] | speed of sound, 318.15 K [m/s] | speed of sound, 328.15 K [m/s] | speed of sound, 338.15 K [m/s] | viscosity, 328.15 K [mPa·s] | viscosity, 338.15 K [mPa·s]
x2 = 0.0546 | – | 971.78 ± 0.41 | 963.14 ± 0.43 | – | 1397.7 ± 5.9 | 1379 ± 5.8 | 7.267 ± 0.073 | 4.899 ± 0.069
x2 = 0.1435 | – | 973.84 ± 0.39 | 965.14 ± 0.42 | – | 1413.9 ± 6 | 1394.6 ± 5.9 | 6.438 ± 0.071 | 4.365 ± 0.067
x2 = 0.2458 | – | 976.48 ± 0.38 | 967.72 ± 0.4 | – | 1431.2 ± 6 | 1410.6 ± 5.9 | 5.44 ± 0.069 | 3.722 ± 0.066
x2 = 0.3539 | – | 979.73 ± 0.36 | 970.91 ± 0.38 | – | 1456.9 ± 6.1 | 1433.2 ± 6 | 4.404 ± 0.067 | 3.054 ± 0.065
x2 = 0.4502 | – | 983.14 ± 0.34 | 974.25 ± 0.36 | – | 1482.2 ± 6.2 | 1457.5 ± 6.1 | 3.532 ± 0.066 | 2.49 ± 0.064
x2 = 0.4989 | – | 985.04 ± 0.33 | 976.14 ± 0.36 | – | 1494.1 ± 6.2 | 1468.9 ± 6.1 | 3.117 ± 0.065 | 2.221 ± 0.064
x2 = 0.5503 | – | 987.17 ± 0.32 | 978.26 ± 0.34 | – | 1508.7 ± 6.2 | 1482.2 ± 6.2 | 2.705 ± 0.065 | 1.951 ± 0.064
x2 = 0.6581 | 1004.28 ± 0.29 | 991.86 ± 0.3 | 982.97 ± 0.32 | 1566 ± 6.4 | 1537.6 ± 6.3 | 1510.5 ± 6.2 | 1.94 ± 0.064 | 1.447 ± 0.064
x2 = 0.7518 | 1007.26 ± 0.29 | 995.6 ± 0.28 | 986.9 ± 0.31 | 1595.2 ± 6.5 | 1567.1 ± 6.4 | 1540 ± 6.3 | 1.412 ± 0.063 | 1.089 ± 0.063
x2 = 0.8626 | 1007.49 ± 0.28 | 997.57 ± 0.27 | 989.57 ± 0.29 | 1605.3 ± 6.5 | 1596.6 ± 6.5 | 1573.7 ± 6.4 | 0.954 ± 0.063 | 0.768 ± 0.063
x2 = 0.9092 | 1005.07 ± 0.27 | 996.39 ± 0.27 | 988.99 ± 0.29 | 1598.9 ± 6.5 | 1594.5 ± 6.5 | 1577.3 ± 6.4 | 0.802 ± 0.063 | 0.656 ± 0.063
x2 = 0.9148 | 1004.61 ± 0.27 | 996.11 ± 0.27 | 988.8 ± 0.29 | 1596.7 ± 6.5 | 1592.9 ± 6.5 | 1576 ± 6.4 | 0.784 ± 0.063 | 0.644 ± 0.063
x2 = 0.9248 | 1003.67 ± 0.27 | 995.52 ± 0.27 | 988.39 ± 0.29 | 1596.3 ± 6.5 | 1590.3 ± 6.5 | 1576.1 ± 6.4 | 0.753 ± 0.063 | 0.621 ± 0.063
x2 = 0.9305 | 1003.07 ± 0.27 | 995.13 ± 0.27 | 988.1 ± 0.29 | 1590.4 ± 6.5 | 1585.9 ± 6.5 | 1572.2 ± 6.4 | 0.735 ± 0.063 | 0.608 ± 0.063
x2 = 0.935 | 1002.56 ± 0.26 | 994.78 ± 0.27 | 987.85 ± 0.29 | 1583.1 ± 6.5 | 1570.1 ± 6.4 | 1559.7 ± 6.4 | 0.721 ± 0.063 | 0.598 ± 0.063
x2 = 0.9452 | 1001.27 ± 0.26 | 993.9 ± 0.27 | 987.18 ± 0.29 | 1580.2 ± 6.4 | 1574.2 ± 6.4 | 1564.6 ± 6.4 | 0.689 ± 0.063 | 0.573 ± 0.063
x2 = 0.9542 | 999.96 ± 0.26 | 992.98 ± 0.28 | 986.46 ± 0.3 | 1578.1 ± 6.4 | 1573 ± 6.4 | 1566.2 ± 6.4 | 0.661 ± 0.063 | 0.552 ± 0.063
x2 = 0.9703 | 997.18 ± 0.26 | 990.96 ± 0.28 | 984.86 ± 0.3 | 1571.6 ± 6.4 | 1570.4 ± 6.4 | 1566.1 ± 6.4 | 0.607 ± 0.063 | 0.513 ± 0.063
x2 = 0.98 | 995.19 ± 0.27 | 989.48 ± 0.29 | 983.67 ± 0.3 | 1558.5 ± 6.4 | 1561.6 ± 6.4 | 1561.3 ± 6.4 | 0.574 ± 0.063 | 0.49 ± 0.063
x2 = 0.9903 | 992.79 ± 0.28 | 987.67 ± 0.29 | 982.18 ± 0.31 | 1548.2 ± 6.3 | 1553.7 ± 6.4 | 1556.6 ± 6.4 | 0.539 ± 0.063 | 0.463 ± 0.063
x2 = 0.9925 | 992.23 ± 0.28 | 987.24 ± 0.29 | 981.83 ± 0.31 | 1544.5 ± 6.3 | 1551.3 ± 6.4 | 1555.4 ± 6.4 | 0.531 ± 0.063 | 0.458 ± 0.063
x2 = 0.9951 | 991.55 ± 0.28 | 986.72 ± 0.3 | 981.4 ± 0.31 | 1540 ± 6.3 | 1548.3 ± 6.3 | 1552.7 ± 6.4 | 0.521 ± 0.063 | 0.451 ± 0.063

— the NIST ThermoML archive (doi:10.1021/je0340755)
